The source of these data is US8586638B2, “Parakeratosis inhibitor and skin preparation for external use” (priority 2003, dated 2013).

Test [1] has as its system parakeratosis and skin roughness caused by oleic acid on the back of hairless mice. The test can be described thus: Parakeratosis inhibition effect test: oleic acid applied to the back of hairless mice, visual skin roughness and parakeratosis level. The test is classed as in vivo, hairless mice (HR-1). More on the design: key to Evaluation Visual (mean of 4 mice), skin roughness: 0.0 = no roughness, 2.0 = control application; 0.25 steps. The conditions noted are these: for effect of inhibiting parakeratosis (conclusion from Table 1) / effect of inhibiting parakeratosis (conclusion from Table 4): hairless mice, oleic acid; for effect of inhibiting parakeratosis (conclusion from Table 1): first embodiment; for Evaluation Parakeratosis (mean of 4 mice): control 2.0; for Evaluation Visual (mean of 4 mice), skin roughness: score 0.0 no roughness, 2.0 control; for effect of inhibiting parakeratosis (conclusion from Table 4): fourth embodiment. As to the method:
A 3 weight % water solution (including 30 weight % ethanol) was prepared as the evaluation specimen of the glycine derivatives in accordance with the invention 1. The pH was regulated to the range between 7.0 to 7.5, by using hydrochloric acid and sodium hydroxide. When the solubility was low, the solution was adjusted accordingly.
100 microliters of 10 weight % oleic acid (solvent: ethanol) was applied to the back of hairless mice (HR-1, Hoshino laboratory animals). Thereafter, 100 microliters of sample solution was applied (glycine derivatives in accordance with said invention 1) at each time. This procedure was repeated for 3 days. The day after the application, the skin condition of the backs was observed by using a CCD camera to evaluate the skin roughness (stratified ablation of the skin surface stratum corneum and red spots). The skin condition was evaluated visually, with scoring the skin condition of control application to 2.0 and the skin condition of no roughness to 0.0, in a 0.25 point step in response to the skin condition. At the same time, the skin surface stratum corneum of the back of hairless mice was peeled off by using a tape for staining the nucleus with haematoxylin to observe the degrees of parakeratosis (parakeratosis level) and evaluate in 0.25 step in the range from 1.0 to 3.0. The higher evaluation points indicates the larger number of parakeratotic corneocytes count, i.e., severer parakeratosis.
The samples to be evaluated of the glycine derivatives and the salts thereof as well as the aminosulfuric acid derivatives and the salts thereof in accordance with the invention 2 were prepared mainly 3 weight % solution (including 30 weight % ethanol, excluding Hydantoic acid and ACES which include 20 weight % ethanol). pH was regulated by using hydrochloric acid or sodium hydroxide to be 7.0 to 7.5. When the solubility was low, then the solution was prepared accordingly.
100 microliters of 10 weight % oleic acid (solvent: ethanol) was applied to the back of Hairless mice (HR-1, Hoshino laboratory animals) Thereafter, 100 microliters of sample solution (glycine derivatives in accordance with the invention 2) was applied thereon at each time. This procedure was repeated for 3 days. The day after the application, the skin condition of the backs was observed by using a CCD camera to evaluate the skin roughness (stratified ablation of the skin surface stratum corneum and red spots). The skin condition was evaluated visually, with scoring the skin condition of control application to 2.0 and the skin condition of no roughness to 0.0, in a 0.25 point step in response to the skin condition. At the same time, the skin surface stratum corneum of the back of hairless mice was peeled off by using a tape for staining the nucleus with haematoxylin to observe the degrees of parakeratosis and evaluate in 0.25 step in the range from 1.0 to 3.0. The higher evaluation points indicates the larger number of parakeratotic corneocytes count, i.e., severer parakeratosis.

The subject of test [2] is pores on the cheek of healthy male subjects. The test can be described thus: Effect of shrinking human pores: replica evaluation of cheek pores. The test is classed as in vivo. The conditions noted are these: for Replica Evaluation (mean of n = 5), difference of pore size score before/after application: twice a day for a month, cheek; for pore-shrinking effect (conclusion from Table 2): second embodiment. As to the method: An experiment of application of sample twice a day for a month on the cheek of healthy male subjects, was conducted with each group consisting of 5 individuals. 3 weight % solution of the glycine derivatives in accordance with the invention 1 (including 15 weight % of ethanol) was prepared. pH was regulated to the range between 7.0 and 7.5, by using hydrochloric acid and/or sodium hydroxide. Control was 15 weight % ethanol solution. Said 3 weight % solution was applied to one side and said control solution was applied to the other side.
Replicas were prepared prior to and after the application to observe the change of form of pores in the same spot under a three-dimensional laser scanning microscope. The size of pores was evaluated visually 13 steps from 1 to 13 (larger number indicates larger pore size), and the difference between the resulted evaluations before/after the application experiment was then calculated to study the effectiveness of each specimen.
An experiment of application of sample twice a day for a month on the cheek of healthy male subjects, was conducted with each group consisting of 5 individuals. 3 weight % solution of the glycine derivatives and the salts thereof as well as the aminosulfuric acid derivatives and the salts thereof in accordance with the invention 2 (including 15 weight % of ethanol), 2 weight % solution of ACES (including 15 weight % of ethanol), 3 weight % solution of CAPS (including 15 weight % of ethanol), and 3 weight % solution of CAPSO (including 15 weight % of ethanol) were prepared. pH was regulated to the range between 7.0 and 7.5, by using hydrochloric acid and/or sodium hydroxide. 15 weight % ethanol solution was used as control. Said sample solutions was applied to one side, and said control solution was applied to the other side.

Test [3] relates to skin roughness caused by oleic acid on the back of hairless mice. In words: Inhibitory effect on skin roughness by the application of oleic acid (TEWL value). Type of test: in vivo, hairless mice (HR-1). More on the design: ΔTEWL: unit not given here. To be noted: for ΔTEWL: after 10 weight % oleic acid, 3 days, four mice per group, control 12.0. As to the method: To study the inhibitory effect on the skin roughness by the application of oleic acid by the glycine derivatives and the salts thereof as well as the aminosulfuric acid derivatives and the salts thereof in accordance with the invention 2, the […] (TEWL value) before and after the application was measured to compare the difference therebetween with the value of control (control solution) in order to determine the effect. The preparation of samples and the application procedure were in accordance with the embodiment 4. The TEWL value was measured by means of TEWA meter TM210 (Courage+Khazaka Inc.).
100 microliters of 10 weight % oleic acid (solvent: ethanol) was applied to the back of hairless mice (HR-1, four in each group). Thereafter, 100 microliters of sample solutions (glycine derivatives and the salts thereof as well as the aminosulfuric acid derivatives and the salts thereof) in accordance with the invention 2 were applied at each time. This procedure was repeated for 3 days. The day after the application, TEWL value of the back of mice was measured and the values were averaged. The larger delta-TEWL value indicates severer aggravation of skin roughness.

The mark [4] stands for this setting: sample 3 weight % in aqueous 30 weight % ethanol, after 10 weight % oleic acid, 3 days, range 1.0 to 3.0, higher = severer.
[5] abbreviates: sample 3 weight % in aqueous 30 weight % ethanol, after 10 weight % oleic acid, 3 days.
Setting [6] is: 3 weight % solution (15 weight % ethanol), 13 steps, larger = larger pore, control 0.2.
The mark [7] stands for this setting: sample 3 weight %, larger = severer roughness.
Where [8] appears, read: Table 4, sample 3 weight % in aqueous 30 weight % ethanol (hydantoic acid: 20 weight % ethanol), range 1.0 to 3.0, higher = severer.
The mark [9] stands for this setting: Table 4, sample 3 weight % in aqueous 30 weight % ethanol (hydantoic acid: 20 weight % ethanol).
Where [10] appears, read: Table 4, sample 1 weight % in aqueous 30 weight % ethanol (ACES: 20 weight % ethanol), range 1.0 to 3.0.
The mark [11] stands for this setting: Table 4, sample 1 weight % in aqueous 30 weight % ethanol (ACES: 20 weight % ethanol).

Where a SMILES comes first, the peptide text is derived from it. [ ]: non-standard residue; d: D form. Sar = CNCC(=O)O

As for `O=C(O)CNC(=O)Cc1ccccc1` [phenaceturic acid], in test [1], the “effect of inhibiting parakeratosis (conclusion from Table 1)” value was “have the effect of inhibiting parakeratosis”. Besides, the “Evaluation Parakeratosis (mean of 4 mice)” value (“Evaluation Parakeratosis” below) in test [1] (setting [4]) was 1.1. The “Evaluation Visual (mean of 4 mice), skin roughness” value (from here on “Evaluation Visual (mean of 4 mice)”) in test [1] (setting [5]) was 1.2. Also, the “Replica Evaluation (mean of n = 5), difference of pore size score before/after application” value in test [2] (setting [6]) is recorded as −0.8. The “pore-shrinking effect (conclusion from Table 2)” value (“pore-shrinking effect” for short) in test [2] (human cheek) is listed as “pore-shrinking effect was observed”.
`C[N+](C)(C)CC(=O)O` [betaine, reference compound] showed a ΔTEWL in test [3] (setting [7]) of 10.6. The “Evaluation Parakeratosis” value in test [1] (setting [8]) turned out to be 1.8. Further, the “Evaluation Visual (mean of 4 mice)” value in test [1] (setting [9]) is reported as 1.8.
Consider `Cl.NCC(N)=O` [glycine-amide HCL, glycine-amide hydrochloride, reference compound], for which, in test [3] (setting [7]), the ΔTEWL stood at 12.4. Also, in test [1] (setting [8]), the “Evaluation Parakeratosis” value stood at 2.0. Also, the “Evaluation Visual (mean of 4 mice)” value in test [1] (setting [9]) is on record as 1.9. Besides, in test [1], the “effect of inhibiting parakeratosis (conclusion from Table 4)” value was “did not exhibit such effect”.
Take `O=S(=O)(O)CCCCNC1CCCCC1` [CABS, 4-(cyclohexylamino)-1-butane sulfonic acid, reference compound]: the ΔTEWL in test [3] (setting [7]) worked out at 11.9. Besides, the “Evaluation Parakeratosis” value in test [1] (setting [8]) came to 2.0. Moreover, the “Evaluation Visual (mean of 4 mice)” value in test [1] (setting [9]) turned out to be 1.9. The “effect of inhibiting parakeratosis (conclusion from Table 4)” value in test [1] was “effect was not recognized”.
On to `CCOC(=O)CN1CCCCC1` [ethyl-1-piperidine acetate, reference compound], for which, in test [3] (setting [7]), the ΔTEWL was 10.7. Moreover, the “Evaluation Parakeratosis” value in test [1] (setting [8]) came to 1.9. Moreover, the “Evaluation Visual (mean of 4 mice)” value in test [1] (setting [9]) came to 1.8.
`O=S(=O)(O)CCNC1CCCCC1` [CHES, 2-(N-cyclohexylamino)ethane sulfonic acid, reference compound] gave a ΔTEWL in test [3] (setting [7]) of 12.3. In addition, the “Evaluation Parakeratosis” value in test [1] (setting [8]) is recorded as 1.9. In test [1] (setting [9]), the “Evaluation Visual (mean of 4 mice)” value was found to be 1.8. In addition, the “effect of inhibiting parakeratosis (conclusion from Table 4)” value in test [1] is listed as “effect was not recognized”.
As to `CN(CC(=O)O)C(=O)CN` [glycyl-sarcosine, glycyl sarcosine] (H-Gly-[Sar]-OH), the “Evaluation Parakeratosis” value in test [1] (setting [8]) is 1.4. In addition, in test [1] (setting [9]), the “Evaluation Visual (mean of 4 mice)” value is recorded as 1.5. Further, the “effect of inhibiting parakeratosis (conclusion from Table 4)” value in test [1] is on record as “have the effect of inhibiting parakeratosis”. Also, the “Replica Evaluation (mean of n = 5), difference of pore size score before/after application” value in test [2] (Table 5, 3.0 weight % solution (15 weight % ethanol), control 0.3) was −0.8. The “effect of pore-shrinking (conclusion from Table 5)” value in test [2] (human cheek, fifth embodiment) is on record as “demonstrated the effect of pore-shrinking”.
Turning to `O=C(O)CNCP(=O)(O)O` [phosphomethylglycine, phosphonomethylglycine, reference compound], in test [3] (sample 1 weight %), the ΔTEWL stood at 11.4. For the same compound, the “Evaluation Parakeratosis” value in test [1] (setting [10]) is on record as 2.1. Further, the “Evaluation Visual (mean of 4 mice)” value in test [1] (setting [11]) stood at 1.9.
In the same order, the values of `O=C(O)CNC(=O)c1ccccc1` [hippuric acid, reference compound] are 10.5, 1.9 and 1.8.
As to `CNCC(=O)O` [sarcosine, N-methylglycine], in test [1], the “effect of inhibiting parakeratosis (conclusion from Table 1)” value was “have the effect of inhibiting parakeratosis”. The “Evaluation Parakeratosis” value in test [1] (setting [4]) was found to be 1.2. The “Evaluation Visual (mean of 4 mice)” value in test [1] (setting [5]) was determined as 1.3. In addition, in test [2] (setting [6]), the “Replica Evaluation (mean of n = 5), difference of pore size score before/after application” value is on record as −1.3. In addition, the “pore-shrinking effect” value in test [2] (human cheek) is “pore-shrinking effect was observed”.
Turning to `CCOC(=O)CNC(=O)CN.Cl` [glycylglycine ethyl ester HCL, glycylglycine ethyl ester hydrochloride salt], in test [3] (hairless mice, oleic acid, seventh embodiment), the “decrease of delta-TEWL value as compared to the control solution (conclusion from Table 6)” value is on record as “significant decrease of delta-TEWL value”. In addition, the ΔTEWL in test [3] (setting [7]) is recorded as 6.7. The “Evaluation Parakeratosis” value in test [1] (setting [8]) was 1.1. Moreover, the “Evaluation Visual (mean of 4 mice)” value in test [1] (setting [9]) is 1.3. Further, the “effect of inhibiting parakeratosis (conclusion from Table 4)” value in test [1] is given as “have the effect of inhibiting parakeratosis”.
On to `CC(=O)N[C@@H](CCC(=O)O)C(=O)O` [N-acetyl-L-glutamic acid], for which, in test [1], the “effect of inhibiting parakeratosis (conclusion from Table 1)” value is given as “have the effect of inhibiting parakeratosis”. The “Evaluation Parakeratosis” value in test [1] (setting [4]) is listed as 1.2. For the same compound, the “Evaluation Visual (mean of 4 mice)” value in test [1] (setting [5]) is 1.2. The “Replica Evaluation (mean of n = 5), difference of pore size score before/after application” value in test [2] (setting [6]) is recorded as −0.8. Further, in test [2] (human cheek), the “pore-shrinking effect” value was “pore-shrinking effect was observed”.
`NCCC(=O)O` [beta-alanine]: in test [1], the “effect of inhibiting parakeratosis (conclusion from Table 1)” value was “have the effect of inhibiting parakeratosis”. The “Evaluation Parakeratosis” value in test [1] (setting [4]) is recorded as 1.5. The “Evaluation Visual (mean of 4 mice)” value in test [1] (setting [5]) amounted to 1.6. Besides, in test [2] (setting [6]), the “Replica Evaluation (mean of n = 5), difference of pore size score before/after application” value is −0.9. For the same compound, the “pore-shrinking effect” value in test [2] (human cheek) is “pore-shrinking effect was observed”.
For `O=C(O)CN(CC(=O)O)CC(=O)O` [nitrilotriacetate, nitrilotriacetic acid, reference compound], the ΔTEWL in test [3] (sample 0.4 weight %) is listed as 11.5. Also, in test [1] (Table 4, sample 0.4 weight % in aqueous 30 weight % ethanol, range 1.0 to 3.0), the “Evaluation Parakeratosis” value is 2.0. For the same compound, the “Evaluation Visual (mean of 4 mice)” value in test [1] (Table 4, sample 0.4 weight % in aqueous 30 weight % ethanol) came to 1.9.
